Drawing on PubChem BioAssay (NCI), this text covers GI50 and TGI for five molecules.

Common to all, as to experiment: NCI-60 cell line screen, 48 h
The subject of test [1] is CAKI-1 renal.
Test [2] has as its system CCRF-CEM leukemia.
Test [3] deals with DU-145 prostate.
The test system of test [4] is MDA-MB-231 breast.
For test [5], the system named is MOLT-4 leukemia.
Test [6] concerns NCI-H226 lung.
In test [7] the test system is OVCAR-3 ovarian.
Test [8] deals with PC-3 prostate.
For test [9], the system named is SN12C renal.
Test [10] concerns SNB-19 CNS.

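Assay format: 96-well plates, 48-hour exposure. Here, GI50 denotes the concentration required for 50% inhibition of growth. The concentration for full growth arrest is given as TGI.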 A value given as a limit tells only on which side of the number the result lay.

Turning to `Clc1ccc2nc(Cl)c3ccccc3c2c1`, the GI50 was over 100 µM in test [1]; 20.6 µM in test [2]; 58.5 µM in [3]; 7.27 µM in test [4]; over 100 µM in [5]; 14 µM in test [6]. Besides, the GI50 is 24.7 µM in test [7], over 100 µM in test [8], 28 µM in test [9] and 9.26 µM in test [10]. The TGI in test [1] was over 100 µM; in test [2] it was 52.9 µM; in [3], over 100 µM; in test [4], 33.2 µM; in [5] it was over 100 µM; in [6] it was over 100 µM. Further, the TGI was over 100 µM in test [7], over 100 µM in test [8], over 100 µM in [9] and 40.2 µM in [10].
With `CC(C)=CC(=O)N[C@@H]1CC2CCC3C(CC[C@@]4(C)C3CC[C@@H]4C(C)N(C)C)[C@@]2(C)C[C@@H]1O` (stereo not given in full), the GI50 in test [1] was 5.96 µM; in test [2], 4.85 µM; in test [3], 10.7 µM; in test [4], 5.77 µM; in [5], 2.5 µM; in test [6], 8.04 µM. Also, the GI50 in test [7] was 5.14 µM; in [8], 3.73 µM; in [9], 9.11 µM; in test [10] it was 17.8 µM. The TGI was 23.9 µM in test [1]; 28.9 µM in test [2]; over 100 µM in [3]; 19.8 µM in test [4]; 14 µM in test [5]; over 41.4 µM in [6]. The TGI was 21.9 µM in test [7], 32.7 µM in test [8], over 44.5 µM in [9] and 60.4 µM in [10].
As for `CN(C)CC1CCCCCC(Br)C1=O` (stereo not given), the TGI in [1] is 16 µM; in [2], 3.15 µM; in test [3] it was 25 µM; in test [4], 30.9 µM; in test [5], 2.83 µM; in test [6] it was over 53.9 µM. In addition, the TGI is 21.6 µM in [7], 43.6 µM in test [8], 32.2 µM in test [9] and over 100 µM in test [10].
In the case of `Fc1cccc(Cl)c1Cn1c(-c2c(F)cccc2Cl)nc2ccccc21`, the GI50 in test [1] is 24 µM; in test [2], 26.2 µM; in [3] it was 24.6 µM; in test [4] it was 13.2 µM; in test [5], 11.1 µM; in test [6] it was 22 µM. Moreover, the GI50 in [7] was 17.4 µM; in [8] it was 14.7 µM; in test [9], 15.7 µM; in [10], 18.4 µM. Further, the TGI in [1] was 47.5 µM; in test [2], over 100 µM; in [3], 56.1 µM; in [4], 29.3 µM; in test [5], over 100 µM; in test [6], 57.8 µM. In addition, the TGI in [7] was found to be 60.2 µM; in test [8], 55.3 µM; in test [9] it was 30.8 µM; in [10], 48.1 µM.
In the case of `O=C(c1nn(-c2ccc(Cl)cc2)cc1O)n1nc(C(F)(F)F)cc1-c1ccccc1`, the GI50 in test [1] is 1.89 µM; in test [2] it was 0.738 µM; in test [3], 8.47 µM; in test [4] it was over 26.3 µM; in test [5], 2.55 µM; in test [6], 2.17 µM. Further, the GI50 in test [7] is 2.25 µM; in [8], 13.9 µM; in test [9], 3.57 µM; in [10], 3.98 µM. Besides, the TGI in test [1] was over 36.8 µM; in [2], over 33.8 µM; in test [3], over 100 µM; in test [4] it was over 100 µM; in test [5], over 100 µM; in test [6] it was over 40.7 µM. In addition, the TGI in test [7], in test [8], in test [9] and in test [10] was over 100 µM in each case.
